Measurements published in ChEMBL document CHEMBL4190372, “Discovery of a Novel Oral Glucocorticoid Receptor Modulator (AZD9567) with Improved Side Effect Profile” (J Med Chem, 2018).

Legend:
Estrogen receptor = biological target: T1, Estrogen receptor (Homo sapiens, UniProt P03372); assay: Binding affinity to human ERalpha expressed in Sf9 cells by fluoligand binding-based fluorescence polarization method
T1 sequence (P03372 whole entry): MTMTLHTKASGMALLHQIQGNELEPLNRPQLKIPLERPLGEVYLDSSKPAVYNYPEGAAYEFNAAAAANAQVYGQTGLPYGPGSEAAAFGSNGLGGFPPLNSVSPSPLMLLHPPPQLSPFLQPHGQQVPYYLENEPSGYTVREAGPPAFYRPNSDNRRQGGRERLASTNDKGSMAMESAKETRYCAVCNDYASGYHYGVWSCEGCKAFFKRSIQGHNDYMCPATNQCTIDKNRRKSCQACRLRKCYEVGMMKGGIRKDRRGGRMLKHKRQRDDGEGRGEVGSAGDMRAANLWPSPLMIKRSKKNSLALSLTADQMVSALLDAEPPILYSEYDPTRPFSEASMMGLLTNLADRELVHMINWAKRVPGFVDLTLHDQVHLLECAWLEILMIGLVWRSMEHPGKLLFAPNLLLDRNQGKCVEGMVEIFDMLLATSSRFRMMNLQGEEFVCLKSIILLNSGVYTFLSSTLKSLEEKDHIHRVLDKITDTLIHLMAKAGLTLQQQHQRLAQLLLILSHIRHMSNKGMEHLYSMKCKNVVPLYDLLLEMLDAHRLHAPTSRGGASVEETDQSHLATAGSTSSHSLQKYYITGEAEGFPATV

Glucocorticoid receptor = biological target: T2, Glucocorticoid receptor (Rattus norvegicus, UniProt P06536); assay: Modulation of glucocorticoid receptor in rat plasma
T2 sequence (P06536 whole entry): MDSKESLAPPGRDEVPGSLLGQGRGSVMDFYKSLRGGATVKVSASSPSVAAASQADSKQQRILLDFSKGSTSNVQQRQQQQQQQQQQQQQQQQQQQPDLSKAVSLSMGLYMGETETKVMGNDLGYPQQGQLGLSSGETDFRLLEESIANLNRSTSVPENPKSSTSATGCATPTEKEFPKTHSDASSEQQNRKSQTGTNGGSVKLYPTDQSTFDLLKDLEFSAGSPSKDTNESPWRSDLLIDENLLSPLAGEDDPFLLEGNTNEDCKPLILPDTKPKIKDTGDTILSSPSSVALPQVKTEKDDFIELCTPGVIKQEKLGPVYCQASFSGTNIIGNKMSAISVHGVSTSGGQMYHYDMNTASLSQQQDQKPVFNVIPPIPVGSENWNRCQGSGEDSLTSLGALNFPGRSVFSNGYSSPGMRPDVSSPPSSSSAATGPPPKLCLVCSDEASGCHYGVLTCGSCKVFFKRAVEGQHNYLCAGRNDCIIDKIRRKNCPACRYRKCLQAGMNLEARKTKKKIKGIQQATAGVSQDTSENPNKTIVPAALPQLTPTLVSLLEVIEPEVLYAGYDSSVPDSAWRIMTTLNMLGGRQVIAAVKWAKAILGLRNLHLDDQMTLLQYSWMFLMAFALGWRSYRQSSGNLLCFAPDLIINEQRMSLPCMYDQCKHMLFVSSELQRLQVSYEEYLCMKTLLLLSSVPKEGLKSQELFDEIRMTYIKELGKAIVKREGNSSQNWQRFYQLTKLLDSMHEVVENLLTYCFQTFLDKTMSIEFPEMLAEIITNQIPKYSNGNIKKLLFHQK

[1] = Cmax in Han-Wistar rat plasma at 0.8 mg/kg, po; assay type: ADME, organism-based; parameters: dose 0.8 mg/kg, route oral
[2] = Terminal half life in Han-Wistar rat at 2.1 mg/kg, po; assay type: ADME, organism-based; conditions: in vivo, read-out: beta t1/2 (converted)
Androgen receptor = biological target: T3, Androgen receptor (Homo sapiens, UniProt P10275); assay: biochemical
T3 sequence (P10275 whole entry): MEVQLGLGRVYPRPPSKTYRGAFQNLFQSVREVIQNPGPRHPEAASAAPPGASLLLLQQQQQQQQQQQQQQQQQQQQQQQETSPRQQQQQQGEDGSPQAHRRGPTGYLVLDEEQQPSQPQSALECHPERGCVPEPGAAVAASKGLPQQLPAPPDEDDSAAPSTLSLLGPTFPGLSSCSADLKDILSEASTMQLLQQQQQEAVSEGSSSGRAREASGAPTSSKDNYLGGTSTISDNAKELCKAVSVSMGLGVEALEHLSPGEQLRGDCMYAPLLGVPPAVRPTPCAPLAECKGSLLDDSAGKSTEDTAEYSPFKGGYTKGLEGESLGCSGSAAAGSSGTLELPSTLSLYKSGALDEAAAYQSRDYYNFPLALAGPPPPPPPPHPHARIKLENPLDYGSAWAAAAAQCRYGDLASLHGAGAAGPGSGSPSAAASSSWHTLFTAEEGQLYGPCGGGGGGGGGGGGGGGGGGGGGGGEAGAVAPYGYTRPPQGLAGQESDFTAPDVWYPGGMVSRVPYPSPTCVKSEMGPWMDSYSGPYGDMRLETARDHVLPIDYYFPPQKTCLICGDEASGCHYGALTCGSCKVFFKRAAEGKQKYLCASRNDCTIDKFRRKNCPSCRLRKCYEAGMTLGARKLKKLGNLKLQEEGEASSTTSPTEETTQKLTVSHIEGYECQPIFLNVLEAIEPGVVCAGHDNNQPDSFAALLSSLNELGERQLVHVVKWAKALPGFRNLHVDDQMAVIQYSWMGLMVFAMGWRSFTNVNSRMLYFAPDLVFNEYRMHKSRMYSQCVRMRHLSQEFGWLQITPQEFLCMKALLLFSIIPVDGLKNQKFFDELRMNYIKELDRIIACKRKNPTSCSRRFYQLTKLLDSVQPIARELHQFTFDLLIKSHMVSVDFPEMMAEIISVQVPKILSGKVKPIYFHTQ
Description: Displacement of [3H]methyltrienolone from androgen receptor in human LNCaP cells after 1440 mins by scintillation counting method

What does the source list for `CC(C)[C@H](NC(=O)C(C)(F)F)[C@H](Oc1ccc2c(cnn2-c2ccc(=O)n(C)c2)c1)c1ccccc1` [MIZACORAT]?
IC50 (Estrogen receptor): > 100 µM; IC50 (Glucocorticoid receptor): 0.03 µM; Cmax [1]: 2000 nM; half-life [2]: 1.9 h; IC50 (Androgen receptor): > 100 µM
